Legend:
TSPO [1] = target: T1, TSPO (Rattus norvegicus, UniProt P16257); experiment: ^18F-LW223 PET blocking and displacement with PK11195 (1 mg/kg) in rats; assay type: in vivo; design: from tissue; host or cells: living Sprague-Dawley rats (brain, heart, lungs and other organs); settings: for reduction of radiotracer binding post-blocking / VT post-blocking: PK11195 1 mg/kg; for displacement from target sites at equilibrium time point: PK11195 1 mg/kg after 60 min; for VT post-blocking: mean±SEM, n=3
Description: (§1) 13 PET scans were performed with ^18F-LW223 (mean injected radioactivity of 19.55±2.1 MBq). Scans were acquired following i.v. bolus injection of ^18F-LW223 via tail vein or femoral vein shunt (invasive kinetic modelling experiments with β-probe automatic blood sampler) in rats. Test-retest scans were obtained in three rats following i.v. bolus of the radiotracer, with two weeks interval between test and retest imaging sessions. […] These scans were compared to baseline scans where no PK11195 was used. For displacement studies, rats received i.v. administration of ^18F-LW223 and scanned continuously for 120 min. […] A male and female mouse were initially used to derive the dosimetry estimates for ^18F-LW223 over a 4 h dynamic scan, followed by additional mice in a further study (in a study with a mean injected radioactivity of 10.83±5.6 MBq).
(§2) All PET data were acquired using a preclinical PET/CT small animal scanner (nanoPET/CT, Mediso, Hungary). A CT scan (semi-circular full trajectory, maximum field of view, 480 projections, 50 kVp, 300 ms and 1:4 binning) was acquired for attenuation correction. Immediately following radiotracer administration, a 120 minutes emission scan was obtained using 3-dimentional 1:5 mode and re-binned as follows: 18×10 s; 2×30 s; 1×60 s; 2×2 min; 10×5 min; 6×10 min. PET images were reconstructed using Mediso's iterative Tera-Tomo 3D reconstruction algorithm and the following settings: 4 iterations, 6 subsets, full detector model, low regularization, spike filter on, voxel size 0.4 mm and 400-600 keV energy window. PET data were corrected for randoms, scatter and attenuation.
(§3) Image Processing and Data Analysis Reconstructed scans were imported into PMOD 3.8 software (PMOD Technologies, Switzerland). Volumes of interest (VOIs) were manually drawn around organs of interest. Time-activity curves (TACs) were generated and standardized uptake values (SUVs) calculated as concentration in the VOI divided by injected dose divided by animal weight. Kinetic modelling was performed using compartmental analysis (1-Tissue (1T) and 2-Tissue (2T) models) and graphical analysis (Logan plot and Ichise multivariate analysis) to estimate the volume of distribution (VT) in different tissues (Innis et al.; Logan; and Ichise et al.). Model fitting performance was evaluated using the Akaike information criterion (AIC) and the model selection criterion (MSC), where the preferred model had the lowest AIC and highest MSC. The selected identifiability criterion was the percentage standard error (% SE) of VT estimates. Kinetic modeling was also performed using graphical analysis to estimate the distribution volume ratio (DVR) in tissue regions and organs where the reference region VOI was the blood pool VOI in the left ventricle (Logan et al.).

TSPO [2] = target: T1, TSPO; experiment: ^18F-LW223 PET kinetic modelling and test-retest in rats; assay type: in vivo; design: from tissue; host or cells: living Sprague-Dawley rats (brain, heart, lungs and other organs); settings: for VT: baseline, Logan modelling; for VT / Distribution volume ratio (DVR) relative to blood pool: mean±SEM, n=3
Description: All experiments were conducted in accordance with the local University of Edinburgh animal ethics committee and were authorized by the Home Office under the Animals (Scientific Procedures) Act 1986. 28 adult male Sprague-Dawley rats (357.1±8.1 g and 10.2±0.4 weeks), and 2 C57bl/6 (25.3±3.7 g and 10.1±0.0 weeks) were used for this study, with 2 C57bl/6 (26.0±5.3 g and 13.5±5.7 weeks) used in an additional study. The animals were housed under standard 12 h light:12 h dark conditions with food and water available ad libitum. On the day of the experiment, anesthesia was induced and maintained with 1.5-2.5% isoflurane (50/50 oxygen/nitrous oxide, 1 L/min). For imaging experiments, an intravenous (i.v.) line was established in the femoral vein or tail vein for injection of the radiotracer and the femoral artery was cannulated to allow automated blood sample collection, as previously described (Warnock et al.).
as §1
A commercially available β-probe system (Twilite2, Swisstrace, Switzerland) was used for the measurement of blood radioactivity as previously described (Warnock et al.). […] With data acquired in separate studies (radiometabolite experiments), the whole-blood arterial input function measured by the automatic blood sampler was corrected for the plasma-to-whole blood ratio and for metabolism in vivo.
as §2
as §3, with “Kinetic modeling was also performed using graphical analysis to estimate the distribution volume ratio (DVR) in tissue regions and organs where the reference region VOI was the blood pool VOI in the left ventricle (Logan et al.).” left out

TSPO [3] = target: TSPO (Homo sapiens, UniProt P30536); experiment: ^18F-LW223 human autoradiography (stroke and diseased coronary tissue); assay type: binding; design: Paraffin embedded human deep brain stoke tissue and diseased coronary tissue sections; from tissue; host or cells: human deep brain stroke tissue and diseased coronary tissue sections
TSPO (Homo sapiens, UniProt P30536), sequence (P30536 whole entry): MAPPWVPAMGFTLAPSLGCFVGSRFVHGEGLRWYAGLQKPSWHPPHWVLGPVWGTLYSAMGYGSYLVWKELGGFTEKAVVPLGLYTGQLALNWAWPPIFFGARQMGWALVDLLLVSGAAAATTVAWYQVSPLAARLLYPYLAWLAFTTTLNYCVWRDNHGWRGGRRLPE
From the text: Slides were washed twice with buffer before being air dried and exposed to a Fujifilm BAS-IP MS 2040 phosphor screen (Fujifilm, Japan). Phosphor screens were imaged on a Fujifilm FLA5100 imaging plate reader (Fujifilm, Japan). Global regions of interest were drawn around whole tissue sections to calculate % SB. To calculate target:non-target ratios, regional sampling analysis was used within the same tissue in the highest and lowest uptake areas.

- reduction on the SUV values post-blocking compared with baseline (TSPO [1]; PK11195 1 mg/kg prior to tracer): 64-81%
- reduction of radiotracer binding post-blocking (TSPO [1]; brain): 12%
- displacement from target sites at equilibrium time point (TSPO [1]; brain): 29%
- reduction of radiotracer binding post-blocking (TSPO [1]; heart): 35%
- displacement from target sites at equilibrium time point (TSPO [1]; heart): 52%
- VT post-blocking (TSPO [1]; heart): 6.19±0.38
- reduction of radiotracer binding post-blocking (TSPO [1]; lungs): 56%
- displacement from target sites at equilibrium time point (TSPO [1]; lungs): 40%
- VT post-blocking (TSPO [1]; lungs): 2.27±0.07
- test-retest inter-subject variability of DVR (TSPO [2]; brain): 16%
- VT (TSPO [2]; brain): 1.46
- Distribution volume ratio (DVR) relative to blood pool (TSPO [2]; brain): 0.53±0.06
- test-retest inter-subject variability of DVR (TSPO [2]; heart): 2%
- VT (TSPO [2]; heart): 9.48±0.03
- Distribution volume ratio (DVR) relative to blood pool (TSPO [2]; heart): 2.96±0.14
- test-retest inter-subject variability of DVR (TSPO [2]; lungs): 15%
- VT (TSPO [2]; lungs): 5.13±0.29
- Distribution volume ratio (DVR) relative to blood pool (TSPO [2]; lungs): 1.84±0.13
- blocking of ^18F-LW223 binding (TSPO [3]; deep brain stroke tissue, blocking with PK11195 30 μM): could not be sufficiently blocked
- target:non-target ratio (TSPO [3]; diseased coronary tissue): 4.5
- % specific binding (% SB) (TSPO [3]; diseased coronary tissue, blocking with LW223 10 μM): 88.1±3.4%
- % specific binding (% SB) (TSPO [3]; diseased coronary tissue, blocking with PK11195 10 μM): 75.3±3.2%
- target:non-target ratio (TSPO [3]; stroke tissue): 7.5
- % specific binding (% SB) (TSPO [3]; stroke tissue, blocking with LW223 10 μM): 42.5±7.0%
Compound: CC[C@@H](C)N(C)C(=O)c1nc2ccccc2c(-c2ccccc2)c1C[18F] [^18F-LW223, (R)-(N-sec-Butyl)-3-[19-fluoro]-methyl-N-methyl-4-phenylquinoline-2-carboxamide]
